# Earlier results as cited in patent publication US20240390359A1, “METHODS FOR THE TREATMENT AND PREVENTION OF NON-VIRAL TICK-BORNE DISEASES AND SYMPTOMS THEREOF” (priority 2023, published 2024).
# Columns and labels:
# Babesia microti = details: Mongolian jirds; primaquine given daily; cited from earlier work
# Babesia = details: mice; cited from earlier work
# Pneumocystis = details: mice; cited from earlier work
# [1] = test system: P. falciparum gametocytes; details: single dose combined with dihydroartemisinin/piperaquine; cited from earlier work
# P. falciparum [2] = details: 250 mg/day; cited from earlier work
# P. falciparum [3] = details: 250 mg/day; cited from earlier work; remark: listed apart in the source
# [4] = test system: various serovars of Leptospira; details: exposure for as little as 30 min; cited from earlier work
# Treponema palludum = details: 50 or 100 microM for two hours in a 3% oxygen atmosphere; cited from earlier work
# Babesia parasites = details: 100 microM for 2h, in vitro; cited from earlier work
# [5] = test system: Trypanosome brucei blood stage forms; details: exposure for 90 minutes; cited from earlier work
# [6] = test system: Borrelia burgdoferi B31 5A18NP1 strain; details: 4 h; cited from earlier work
# [7] = test system: free-living gram-negative and gram-positive bacteria; details: cited from earlier work
# Plasmodium vivax = details: monotherapy 400 mg/day for three days, cited from earlier work
# Plasmodium falciparum = details: 600 mg loading dose followed by 200 mg; challenge three days after last dose; all control subjects developed parasitemia; cited from earlier work
# [8] = test system: blood stages of P. falciparum; details: in vivo; cited from earlier work
# [9] = test system: intracellular amastigote forms of Leishmania major; details: cited from earlier work
# B. rodhaini [10] = details: single dose of 20 mg/kg; immunocompromised SCID mice; cited from earlier work
# B. microti = details: one patient, prior rituximab; tafenoquine as monotherapy for six weeks at approved malaria prevention dose; cited from earlier work
# B. rodhaini [11] = details: cited from earlier work
# [12] = test system: extracellular blood stage forms of Trypanosoma brucei; details: cited from earlier work
# [13] = 600 mg over three days then 200 mg weekly for up to one year; cited from earlier work
# [14] = cited from earlier work
# [15] = cited from earlier work; remark: listed apart in the source
# B. gibsoni = details: splenectomized dogs, cited from earlier work
# [16] = in vivo; cited from earlier work
structure (smiles),measurement,setting,value
COc1cc(NC(C)CCCN)c2nccc(C)c2c1 (centres unmarked) [4-methyl substituted primaquine],efficacy against Babesia microti,Babesia microti,more efficacious than primaquine
COc1cc(NC(C)CCCN)c2ncccc2c1 (centres unmarked) [primaquine],single dose that cleared Babesia parasitemia,Babesia,100 mg/kg
same,cure of Pneumocystis infections,Pneumocystis,must be combined with clindamycin
same,time until gametocyte infectivity statistically lower than reference values,[1],two days post-dosing
CC[C@H]1OC(=O)[C@H](C)[C@@H](O[C@H]2C[C@@](C)(OC)[C@@H](O)[C@H](C)O2)[C@H](C)[C@@H](O[C@@H]2O[C@H](C)C[C@H](N(C)C)[C@H]2O)[C@](C)(O)C[C@@H](C)CN(C)[C@H](C)[C@@H](O)[C@]1(C)O [Azithromycin],"Protective Efficacy (%) Relative to Placebo, Pf/Semi-Immune",P. falciparum [2],83% (Anderson)
same,"Protective Efficacy (%) Relative to Placebo, PF/Non-immune or Malaria-naïve",P. falciparum [3],72% (Taylor)
OO [hydrogen peroxide],exogenous hydrogen peroxide concentrations that killed,[4],< 180 µM
same,growth,Treponema palludum,significantly inhibited
same,killing of Babesia parasites,Babesia parasites,kills Babesia parasites in vitro
same,hydrogen peroxide concentration that killed blood stage forms,[5],approximately 140 microM
same,lowest concentration that inhibited growth,[6],62.5 µM
"COc1cc(C)c2c(Oc3cccc(C(F)(F)F)c3)c(OC)cc(NC(C)CCCN)c2n1 (centres unmarked) [tafenoquine, N (4)-[2,6-Dimethoxy-4-methyl-5-[3-(trifluoromethyl)phenoxy]quinolin-8-yl] pentane-1,4-diamine]",activity against gram-negative versus gram-positive bacteria,[7],much less active against free-living gram-negative bacteria than free-living gram-positive bacteria
same,day by which all patients cleared blood stage parasites,Plasmodium vivax,≤ 8 days
same,relapses during the follow up period,Plasmodium vivax; patients with data available,no relapses
same,development of blood stage parasitemia after challenge,Plasmodium falciparum,none of the tafenoquine subjects did
same,activity against the blood stages of P. falciparum,[8],quite effective
same,potency of killing,[9],< 4 µM
same,single dose that cleared Babesia parasitemia,Babesia,20 mg/kg
same,death,B. rodhaini [10],delayed not prevent
same,clinical outcome of babesiosis treatment,B. microti,the patient was cured
same,formation of vacuoles in B. rodhaini blood stages,B. rodhaini [11]; single dose of 20 mg/kg in mice,induces the formation of large vacuoles
same,parasitemia,"B. rodhaini [11]; single dose of 20 mg/kg, Balb/c mice",cleared parasitemia
same,survival,"B. rodhaini [11]; single dose of 20 mg/kg, Balb/c mice, infection uniformly lethal in untreated animals",100%
same,antioxidant enzymes in B. rodhaini,B. rodhaini [11]; single dose treatment in mice,upregulated
same,potency of killing,[12],< 4 µM
same,overall rate of adverse events relative to placebo,[13],without increasing the overall rate of adverse events
same,specific adverse events with increased risk,[13],gastrointestinal effects [mild to moderate] and cornea verticillata
same,doses that may not be well tolerated,[14]; G6PD deficient subjects,≥ 300 mg
same,doses that may be well tolerated,[14]; G6PD normal adult subjects,up to 400 mg
same,doses often not well tolerated,[14]; adult subjects regardless of G6PD status,above 400 mg
same,effect on QTC prolongation associated with chloroquine,[15]; coadministered with chloroquine,did not increase the QTC prolongation
same,effect on QTC interval,[15]; doses of up to 1200 mg over three days,not found to increase the upper limit of 90% confidence interval of the QTC interval
same,parasitemia,"B. gibsoni; 100 mg tablet (9-11.5 mg/kg) on Days 12, 19 and 48",sufficient to clear and cure
same,"symptoms of infections such as anorexia, elevated respiration and pulse",B. gibsoni,alleviated
same,half-life,[16],14 days
